Experiments:
CYP3A4 = CYP3A4 (Homo sapiens, UniProt P08684); test: Ratio of IC50 for time dependent inhibition of CYP3A4 (unknown origin) measured at 5 mins to IC50 for time dependent inhibition of CYP3A4 (unknown origin) measured at 30 mins; conditions: read-out: Ratio IC50
Cytochrome P450 3A4 = Cytochrome P450 3A4 (Homo sapiens, UniProt P08684); test: Time dependent inhibition of CYP3A4 (unknown origin) measured at 30 mins; type: ADME
Myeloperoxidase [1] = molecular target: T1, Myeloperoxidase (Homo sapiens, UniProt P05164)
T1 sequence (P05164 whole entry): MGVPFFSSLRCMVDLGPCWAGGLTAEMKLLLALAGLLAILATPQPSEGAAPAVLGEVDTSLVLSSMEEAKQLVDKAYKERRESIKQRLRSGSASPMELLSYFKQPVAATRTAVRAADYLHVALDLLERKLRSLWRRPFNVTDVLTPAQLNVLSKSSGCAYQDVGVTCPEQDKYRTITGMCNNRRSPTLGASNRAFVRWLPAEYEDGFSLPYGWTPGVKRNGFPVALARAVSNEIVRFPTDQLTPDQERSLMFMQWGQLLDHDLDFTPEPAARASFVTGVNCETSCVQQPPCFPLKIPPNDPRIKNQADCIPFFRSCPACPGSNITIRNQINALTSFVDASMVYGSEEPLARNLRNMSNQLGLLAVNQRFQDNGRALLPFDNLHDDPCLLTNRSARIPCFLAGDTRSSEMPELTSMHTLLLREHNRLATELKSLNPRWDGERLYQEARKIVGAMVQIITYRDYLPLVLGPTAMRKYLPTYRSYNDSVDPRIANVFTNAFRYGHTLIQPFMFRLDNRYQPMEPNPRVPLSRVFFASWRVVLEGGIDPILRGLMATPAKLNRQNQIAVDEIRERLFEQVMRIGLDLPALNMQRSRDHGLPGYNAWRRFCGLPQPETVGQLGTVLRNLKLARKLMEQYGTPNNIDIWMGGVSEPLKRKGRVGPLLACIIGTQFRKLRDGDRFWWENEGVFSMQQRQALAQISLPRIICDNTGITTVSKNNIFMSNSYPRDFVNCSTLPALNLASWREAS
Description: Inhibition of MPO (unknown origin) chlorination activity incubated for 10 mins followed by NaCl addition by aminophenyl fluorescein assay

Thyroid peroxidase = molecular target: T2, Thyroid peroxidase (Homo sapiens, UniProt P07202); test: (§1) Inhibition of C-terminal hexaHis-tagged TPO (unknown origin) expressed in Trichoplusia ni insect cells using 3-iodo tyrosine as substrate preincubated for 10 mins followed by substrate and H2O2 addition and further incubated for 15 mins
T2 sequence (P07202 whole entry): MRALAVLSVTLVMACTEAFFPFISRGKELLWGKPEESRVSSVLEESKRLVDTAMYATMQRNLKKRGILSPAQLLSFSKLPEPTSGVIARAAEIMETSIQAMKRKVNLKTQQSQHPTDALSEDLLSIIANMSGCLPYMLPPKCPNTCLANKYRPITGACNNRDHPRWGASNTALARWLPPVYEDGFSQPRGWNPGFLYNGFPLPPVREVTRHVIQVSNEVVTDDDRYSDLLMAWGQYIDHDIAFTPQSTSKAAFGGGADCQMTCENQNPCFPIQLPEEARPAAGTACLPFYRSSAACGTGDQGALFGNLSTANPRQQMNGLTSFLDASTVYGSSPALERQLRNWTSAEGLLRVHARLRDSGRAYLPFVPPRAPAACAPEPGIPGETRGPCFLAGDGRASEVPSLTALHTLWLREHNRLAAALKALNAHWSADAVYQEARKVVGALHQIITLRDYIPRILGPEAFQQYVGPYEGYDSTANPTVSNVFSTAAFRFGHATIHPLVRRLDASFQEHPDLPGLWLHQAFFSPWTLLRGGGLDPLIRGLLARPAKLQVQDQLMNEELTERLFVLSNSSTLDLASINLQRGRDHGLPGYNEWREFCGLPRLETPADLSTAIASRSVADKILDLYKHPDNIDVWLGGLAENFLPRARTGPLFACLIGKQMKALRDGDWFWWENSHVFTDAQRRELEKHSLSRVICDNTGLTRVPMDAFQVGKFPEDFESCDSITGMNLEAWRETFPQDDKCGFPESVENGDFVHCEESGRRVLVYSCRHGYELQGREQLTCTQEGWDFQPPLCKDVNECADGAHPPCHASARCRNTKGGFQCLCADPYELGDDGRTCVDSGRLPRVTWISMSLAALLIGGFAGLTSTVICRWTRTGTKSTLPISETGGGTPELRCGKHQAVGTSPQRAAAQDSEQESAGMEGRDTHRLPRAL

[2] = Half life in human liver microsomes; type: ADME, Microsome
Myeloperoxidase [3] = molecular target: T1, Myeloperoxidase; test: Inhibition of PMA-induced MPO in human Neutrophil incubated for 3 mins by luminometry; type: tissue-based
[4] = Volume of distribution at steady state in mouse at 1 mg/kg, iv; type: ADME, organism-based; conditions: in vivo, read-out: Vdss
[5] = Clearance in mouse at 1 mg/kg, iv; type: ADME, organism-based; conditions: in vivo
[6] = Protein binding in human plasma; type: ADME, cell-free; conditions: read-out: PPB (converted)
[7] = Half life in mouse at 1 mg/kg, iv; type: ADME, organism-based; conditions: in vivo
[8] = Permeability of the compound by PAMPA method; type: ADME
Homo sapiens = organism: Homo sapiens; test: as §1, with “Selectivity ratio” for “Inhibition”, “of IC50 for MPO (unknown origin) chlorination activity incubated for 10 mins followed by NaCl addition by aminophenyl fluorescein assay to IC50 for” for “of”

Sequence of CYP3A4 (P08684 whole entry): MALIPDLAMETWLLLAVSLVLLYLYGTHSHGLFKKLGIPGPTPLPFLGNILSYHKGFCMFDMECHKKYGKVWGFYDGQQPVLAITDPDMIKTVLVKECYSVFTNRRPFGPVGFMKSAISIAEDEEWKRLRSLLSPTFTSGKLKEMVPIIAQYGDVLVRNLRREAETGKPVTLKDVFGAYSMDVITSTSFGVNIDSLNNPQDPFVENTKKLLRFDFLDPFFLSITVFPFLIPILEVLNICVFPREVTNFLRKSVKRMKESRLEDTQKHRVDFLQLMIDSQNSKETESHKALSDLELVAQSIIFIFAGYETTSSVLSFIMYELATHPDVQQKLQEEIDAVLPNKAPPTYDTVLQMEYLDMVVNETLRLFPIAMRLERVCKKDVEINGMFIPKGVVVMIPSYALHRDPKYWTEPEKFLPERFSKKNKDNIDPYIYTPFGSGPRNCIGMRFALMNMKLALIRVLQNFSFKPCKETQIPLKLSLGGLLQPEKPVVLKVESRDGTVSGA
Sequence of Cytochrome P450 3A4 (P08684 whole entry): as above

| SMILES | IC50 shift (CYP3A4) | IC50 (Cytochrome P450 3A4) [nM] | IC50 (Myeloperoxidase [1]) [nM] | IC50 (Thyroid peroxidase) [nM] | other results |
| --- | --- | --- | --- | --- | --- |
| Nc1cc(Cc2ccn(Cc3cccc(O[C@H]4CCNC4)c3)n2)c2nn[nH]c2n1 | 1.6 | 13000 | 46 | 14000 | – |
| Nc1cc(Cc2ccn(Cc3cccc(Cc4ccccc4)c3)n2)c2nn[nH]c2n1 | 2.8 | 37 | 39 | 1900 | – |
| Nc1cc(Cc2ccn(-c3ccccn3)n2)c2nn[nH]c2n1 | 3.2 | 210 | 54 | 2000 | – |
| Nc1cc(C2CCNCCc3cccc(c3)Oc3cccc(c3)Cn3cc2cn3)c2nn[nH]c2n1 (stereo not drawn) | – | – | 14 | – | – |
| Nc1cc(Cc2ccn(-c3cccc(-c4ccccc4)c3)n2)c2nn[nH]c2n1 | 2.4 | 7.1 | 85 | 710 | – |
| Nc1cc(Cc2ccn(Cc3cccc(C4CCNCC4)c3)n2)c2nn[nH]c2n1 | 4.3 | 3300 | 100 | 21000 | half-life [2]: > 2 h; IC50 (Myeloperoxidase [3]): 2400 nM; Vd [4]: 0.2 L/kg; clearance [5]: 2.6 mL/min/kg; fraction unbound [6]: 0.2; half-life [7]: 1.2 h; permeability [8]: Impermeable |
| Nc1cc(Cc2ccn(Cc3cccc(Oc4cccc5c4CNC5)c3)n2)c2nn[nH]c2n1 | 3.3 | 140 | 26 | 1700 | – |
| Nc1cc(C2CCNCc3cccc(c3)Oc3cccc(c3)Cn3cc2cn3)c2nn[nH]c2n1 (stereo not drawn) | – | – | 36 | – | – |
| Nc1cc(Cc2ccn(Cc3cccc(Oc4ccccc4)c3)n2)c2nn[nH]c2n1 | 2.9 | 11 | 44 | 1100 | – |
| Nc1cc(Cc2ccn(Cc3ccc4c(c3)CCNC4)n2)c2nn[nH]c2n1 | 2.8 | 7000 | 58 | 6700 | half-life [2]: > 2 h; IC50 (Myeloperoxidase [3]): 5000 nM; fraction unbound [6]: 0.5; Ratio IC50 (Homo sapiens): 120 |
| Nc1cc(C2CCNCc3cccc(c3)OCc3cccc(c3)Cn3cc2cn3)c2nn[nH]c2n1 (stereo not drawn) | – | – | 8 | – | – |
| Nc1cc(C2CCNC34CCC(c5ccccc5)(CC3)[C@H](C4)Oc3cccc(c3)Cn3cc2cn3)c2nn[nH]c2n1 (stereo partly drawn) | – | – | 7 | – | – |
| Nc1cc(C2CCNCC3(CCCC3)COc3cccc(c3)Cn3cc2cn3)c2nn[nH]c2n1 (stereo not drawn) | – | – | 26 | – | – |
| Nc1cc(Cc2ccn(Cc3ccccc3)n2)c2nn[nH]c2n1 | 3.2 | 310 | 120 | 2300 | – |
| Nc1cc(C2CCNC3CCC(CC3)COc3cccc(c3)Cn3cc2cn3)c2nn[nH]c2n1 (stereo not drawn) | – | – | 31 | – | – |
| Nc1cc(C2CCNCCc3cccc(c3)-c3cccc(c3)Cn3cc2cn3)c2nn[nH]c2n1 (stereo not drawn) | – | – | 21 | – | – |
| Nc1cc(Cc2ccn(Cc3ccc4cnccc4c3)n2)c2nn[nH]c2n1 | 4.1 | 210 | 140 | 1800 | – |
| Nc1cc(Cc2ccn(Cc3ccc4ccccc4c3)n2)c2nn[nH]c2n1 | 2.4 | 40 | 52 | 1100 | – |
| Nc1cc(Cc2ccn(-c3ccc(F)cc3)n2)c2nn[nH]c2n1 | 3.3 | 110 | 53 | 700 | – |
| Nc1cc(C2CCNCc3cccc(c3)COc3cccc(c3)Cn3cc2cn3)c2nn[nH]c2n1 (stereo not drawn) | – | – | 25 | – | – |
| Nc1cc(C2CCNCC(=O)N(CCc3ccccc3)Cc3cccc(c3)Cn3cc2cn3)c2nn[nH]c2n1 (stereo not drawn) | – | – | 29 | – | – |
| Nc1cc([C@H]2CCN[C@H]3C[C@H](Cc4ccccc4)[C@@H](C3)Oc3cccc(c3)Cn3cc2cn3)c2nn[nH]c2n1 | – | – | 5 | – | – |
| Nc1cc(Cc2ccn(-c3ccccc3)n2)c2nn[nH]c2n1 | 2.7 | 210 | 55 | 640 | – |
| Nc1cc(C2CCNCCc3cccc(c3)OCc3cccc(c3)Cn3cc2cn3)c2nn[nH]c2n1 (stereo not drawn) | – | – | 17 | – | – |
| Nc1cc(Cc2ccn(Cc3cccc(-c4ccccc4)c3)n2)c2nn[nH]c2n1 | 2.8 | 17 | 55 | 1100 | – |

Source: ChEMBL document CHEMBL4811247, “Small molecule and macrocyclic pyrazole derived inhibitors of myeloperoxidase (MPO)” (Bioorg Med Chem Lett, 2021)
